From ChEMBL document CHEMBL4831514, “Novel betulin dicarboxylic acid ester derivatives as potent antiviral agents: Design, synthesis, biological evaluation, structure-activity relationship and in-silico study” (Eur J Med Chem, 2021)
Activity calls are given as the source filed them. No cut-off for these calls is given here.

Legend:
[1] = (§1) Cytotoxicity against human A549 cells assessed as reduction in cell viability incubated for 48 hrs by MTT assay; type: cell-based; conditions: A549 cells
A549 = test: as §1; type: cell-based; conditions: a549, 48 h
MDCK = test: Cytotoxicity against MDCK cells assessed as reduction in cell viability incubated for 72 hrs by MTT assay; type: cell-based, Canis lupus familiaris; conditions: dog, mdck, 72 h
Human alphaherpesvirus 1 [2] = test: Antiviral activity against Human herpesvirus-1 MacIntyre infected in A549 cells assessed as inhibition of viral adsorption at early stage of replication treated for 1 hr during viral infection followed by replacement with fresh medium and measured after 48 hrs by MTT assay; type: functional, organism-based
Enterovirus E = test: Antiviral activity against Enterovirus E LCR-4 infected in A549 cells assessed as inhibition of viral adsorption at early stage of replication treated for 1 hr during viral infection followed by replacement with fresh medium and measured after 72 hrs by MTT assay; type: functional, organism-based
Human adenovirus 5 [3] = test: Antiviral activity against Human adenovirus 5 Adenoid 75 infected in A549 cells assessed as inhibition of viral adsorption at early stage of replication treated for 1 hr during viral infection followed by replacement with fresh medium and measured after 72 hrs by MTT assay; type: functional, organism-based
Human alphaherpesvirus 1 [4] = test: (§2) Antiviral activity against Human herpesvirus 1 MacIntyre infected in A549 cells assessed as reduction in virus titer treated 1 hr post viral infection followed by replacement with fresh medium with compounds and measured after 48 hrs by MTT assay; type: functional, organism-based; conditions: Human alphaherpesvirus 1, MacIntyre
[5] = as §2, with “Selectivity index, ratio of CC50 for cytotoxicity against human A549 cells to EC50 for antiviral” for “Antiviral”, “72” for “48”; type: toxicity, cell-based; conditions: read-out: Selectivity Index
Human alphaherpesvirus 1 [6] = test: as §2, with “Potency index, ratio of acyclovir EC50 to test compound EC50 for antiviral” for “Antiviral”; type: functional
[7] = test system: Vesicular stomatitis virus; test: Antiviral activity against Vesicular stomatitis virus Indiana infected in A549 cells assessed as reduction in virus titer preincubated for 24 hrs followed by viral infection and measured after 72 hrs by microscopic analysis; type: functional, organism-based
Human alphaherpesvirus 1 [8] = test: Antiviral activity against Human herpesvirus 1 MacIntyre infected in A549 cells assessed as reduction in virus titer preincubated for 24 hrs followed by viral infection and measured after 72 hrs by microscopic analysis; type: functional, organism-based
Human adenovirus 5 [9] = test: Antiviral activity against Human adenovirus 5 Adenoid 75 infected in A549 cells assessed as reduction in virus titer preincubated for 24 hrs followed by viral infection and measured after 72 hrs by microscopic analysis; type: functional, organism-based

Row | SMILES | CC50 at 48 h [1] | CC20 (A549) | CC20 (MDCK) | Activity (Human alphaherpesvirus 1 [2]) | Activity (Enterovirus E) | Activity (Human adenovirus 5 [3]) | EC50 (Human alphaherpesvirus 1 [4]) | selectivity ratio at 72 h [5] | Ratio EC50 (Human alphaherpesvirus 1 [6]) | Activity [7] | Activity (Human alphaherpesvirus 1 [8]) | Activity (Human adenovirus 5 [9])
1 | C=C(C)[C@@H]1CC[C@]2(COC(=O)c3ccccc3C(=O)N3CCOCC3)CC[C@]3(C)[C@H](CC[C@@H]4[C@@]5(C)CC[C@H](O)C(C)(C)[C@@H]5CC[C@]43C)[C@@H]12 | 144 µM | 35.87 µM | 143.47 µM | inactive | inactive | inactive | 35.9 µM | 4 | 3 | inactive | inactive | inactive
2 | C=C(C)[C@@H]1CC[C@]2(COC(=O)CCCC(=O)N3CCCCC3)CC[C@]3(C)[C@H](CC[C@@H]4[C@@]5(C)CC[C@H](O)C(C)(C)[C@@H]5CC[C@]43C)[C@@H]12 | – | 17.12 µM | 4.25 µM | inactive | inactive | inactive | – | – | 3 | inactive | inactive | inactive
3 | C=C(C)[C@@H]1CC[C@]2(COC(=O)CCCCCCCCCC(=O)N3CCOCC3)CC[C@]3(C)[C@H](CC[C@@H]4[C@@]5(C)CC[C@H](O)C(C)(C)[C@@H]5CC[C@]43C)[C@@H]12 | 164 µM | 34.77 µM | 139.08 µM | inactive | inactive | inactive | 34.8 µM | 4.7 | 3 | inactive | inactive | inactive
4 | C=C(C)[C@@H]1CC[C@]2(COC(=O)CCCC(=O)N3CCOCC3)CC[C@]3(C)[C@H](CC[C@@H]4[C@@]5(C)CC[C@H](O)C(C)(C)[C@@H]5CC[C@]43C)[C@@H]12 | 151 µM | 18.85 µM | 18.85 µM | inactive | inactive | inactive | 18.9 µM | 8 | 3 | inactive | inactive | inactive
5 | C=C(C)[C@@H]1CC[C@]2(COC(=O)/C=C(\C)C(=O)O)CC[C@]3(C)[C@H](CC[C@@H]4[C@@]5(C)CC[C@H](O)C(C)(C)[C@@H]5CC[C@]43C)[C@@H]12 | – | 11.26 µM | 5.63 µM | inactive | inactive | inactive | – | – | – | inactive | inactive | inactive
6 | C#CCNC(=O)CCCCCCCCCC(=O)OC[C@]12CC[C@@H](C(=C)C)[C@@H]1[C@H]1CC[C@@H]3[C@@]4(C)CC[C@H](O)C(C)(C)[C@@H]4CC[C@@]3(C)[C@]1(C)CC2 | – | 38.46 µM | 153.85 µM | inactive | inactive | inactive | – | – | – | inactive | inactive | inactive
7 | C#CC1(NC(=O)CCCC(=O)OC[C@]23CCC(C(=C)C)[C@@H]2[C@H]2CC[C@@H]4[C@@]5(C)CC[C@H](O)C(C)(C)[C@@H]5CC[C@@]4(C)[C@]2(C)CC3)CCCCC1 (single isomer, unassigned) | – | 108.7 µM | 108.7 µM | inactive | inactive | inactive | – | – | – | inactive | inactive | inactive
8 | C#CCNC(=O)CCCC(=O)OC[C@]12CC[C@@H](C(=C)C)[C@@H]1[C@H]1CC[C@@H]3[C@@]4(C)CC[C@H](O)C(C)(C)[C@@H]4CC[C@@]3(C)[C@]1(C)CC2 | – | 42.09 µM | 1.18 µM | inactive | inactive | inactive | – | – | – | inactive | inactive | inactive
9 | C=C(C)[C@@H]1CC[C@]2(COC(=O)c3ccccc3C(=O)O)CC[C@]3(C)[C@H](CC[C@@H]4[C@@]5(C)CC[C@H](O)C(C)(C)[C@@H]5CC[C@]43C)[C@@H]12 | – | 21.15 µM | 42.3 µM | inactive | inactive | inactive | – | – | – | inactive | inactive | inactive
10 | C=C(C)[C@@H]1CC[C@]2(COC(=O)c3cccc(C(=O)N4CCOCC4)c3)CC[C@]3(C)[C@H](CC[C@@H]4[C@@]5(C)CC[C@H](O)C(C)(C)[C@@H]5CC[C@]43C)[C@@H]12 | – | 71.74 µM | 143.47 µM | inactive | inactive | inactive | – | – | – | inactive | inactive | inactive
11 | C#CC1(NC(=O)c2ccccc2C(=O)OC[C@]23CC[C@@H](C(=C)C)[C@@H]2[C@H]2CC[C@@H]4[C@@]5(C)CC[C@H](O)C(C)(C)[C@@H]5CC[C@@]4(C)[C@]2(C)CC3)CCCCC1 | – | 109.82 µM | 1.57 µM | inactive | inactive | inactive | – | – | – | inactive | inactive | inactive
12 | C=C(C)[C@@H]1CC[C@]2(COC(=O)CCC(=O)N3CCCCC3)CC[C@]3(C)[C@H](CC[C@@H]4[C@@]5(C)CCC(O)C(C)(C)[C@@H]5CC[C@]43C)[C@@H]12 (single isomer, unassigned) | – | 69.83 µM | 17.46 µM | inactive | inactive | inactive | – | – | – | inactive | inactive | inactive
13 | C#CCNC(=O)c1cccc(C(=O)OC[C@]23CC[C@@H](C(=C)C)[C@@H]2[C@H]2CC[C@@H]4C5(C)CC[C@H](O)C(C)(C)[C@@H]5CC[C@@]4(C)[C@]2(C)CC3)c1 (single isomer, unassigned) | – | 159.24 µM | 159.24 µM | inactive | inactive | inactive | – | – | – | inactive | inactive | inactive
14 | C=C(C)[C@@H]1CC[C@]2(COC(=O)CCC(=O)N3CCOCC3)CC[C@]3(C)[C@H](CC[C@@H]4[C@@]5(C)CC[C@H](O)C(C)(C)[C@@H]5CC[C@]43C)[C@@H]12 | – | 9.63 µM | 4.78 µM | inactive | inactive | inactive | – | – | – | inactive | inactive | inactive
